Test results taken from US9393221B2, “Methods and compounds for reducing intracellular lipid storage” (THE GENERAL HOSPITAL CORPORATION, priority 2011, dated 2016).
Structures can show the parent of a compound that is named as a salt.

Test system: ATGL-KO iPSCs
Experiment: High throughput iPSC chemical screening, Oil Red O (ORO) lipid accumulation; for Z-score: test concentration or dose not given here
Type: cell-based, mouse
Conditions: not given

| SMILES | Z-score |
| --- | --- |
| C[C@]12CC[C@@H](O)C[C@@H]1CC[C@@H]1[C@@H]2CC[C@]2(C)C(=O)CC[C@@H]12 [Androsterone] | 1.156 |

Same assay, conditions: glycolytic switch compounds

| SMILES | Rank in normalized ORO score from screen |
| --- | --- |
| CN1CCN(C(c2ccccc2)c2ccc(Cl)cc2)CC1 (stereo not drawn) [(1-[(4-Chlorophenyl)phenyl-methyl]-4-methylpiperazine)] | 720 |
| CN(C)c1nc(N(C)C)nc(N(C)C)n1 [Altretamine] | 814 |
| O=C1O[C@H]([C@@H](O)CO)C(O)=C1O [Ascorbic acid] | 764 |

Same assay, conditions: normalized ORO level vs DMSO-treated cells; compound present during 7 days differentiation, 96-well; negative = decrease in lipid accumulation

| SMILES | Z-score |
| --- | --- |
| CN1CCN(C(c2ccccc2)c2ccc(Cl)cc2)CC1 (stereo not drawn) [(1-[(4-Chlorophenyl)phenyl-methyl]-4-methylpiperazine)] | 0.241 |
| CC(C)NC[C@@H](O)c1ccc(O)c(O)c1.O=C(O)C(O)C(O)C(=O)O [(+)-Isoproterenol (+)-bitartrate salt] | −0.728 |
| CC(C)(C)NC[C@@H](O)COc1cccc2c1CCCC2=O.Cl [(+)-Levobunolol hydrochloride] | −0.1813 |
| CC(C)NC[C@@H](O)COc1ccc(CC(N)=O)cc1 [(R)-(+)-Atenolol] | 0.9856 |
| COc1ccc2cc([C@@H](C)C(=O)[O-])ccc2c1.[Na+] [(R)-Naproxen sodium salt] | 2.243 |
| CC(C)NC[C@@H](O)COc1cccc2ccccc12.Cl [(R)-Propranolol hydrochloride] | −0.4494 |
| N[C@H]1CONC1=O [(S)-(−)-Cycloserine] | −0.4402 |
| C[C@@H]1CCC[C@H](C)N1.Cl [(cis-) Nanophine] | −1.4074 |
| COc1ccc2c(c1OC)CN1CCc3cc4c(cc3C1C2)OCO4 (stereo not drawn) [(d,l)-Tetrahydroberberine] | 3.2577 |
| CC(C)(C)NC[C@H](O)COc1cccc2c1CCCC2=O.Cl [(−)-Levobunolol hydrochloride] | −0.5665 |
| COc1ccc(-c2cc(=O)c3c(O)cc(O)cc3o2)cc1 [Acacetin] | 0.4211 |
| CCCC(=O)Nc1ccc(OCC(O)CNC(C)C)c(C(C)=O)c1 (stereo not drawn) [Acebutolol hydrochloride] | 0.4578 |
| O=C(O)COC(=O)Cc1ccccc1Nc1c(Cl)cccc1Cl [Aceclofenac] | −0.5442 |
| COc1ccc2c(c1)c(CC(=O)OCC(=O)O)c(C)n2C(=O)c1ccc(Cl)cc1 [Acemetacin] | −0.9005 |
| CC(=O)CC(c1ccc([N+](=O)[O-])cc1)c1c(O)c2ccccc2oc1=O (stereo not drawn) [Acenocoumarol] | −1.4804 |
| CC(=O)Nc1ccc(O)cc1 [Acetaminophen] | −0.6512 |
| CC(=O)Nc1nnc(S(N)(=O)=O)s1 [Acetazolamide] | 0.8773 |
| CC(=O)c1ccc(S(=O)(=O)NC(=O)NC2CCCCC2)cc1 [Acetohexamide] | 0.3584 |
| CC(=O)c1ccc2c(c1)N(CCCN(C)C)c1ccccc1S2.O=C(O)/C=C\C(=O)O [Acetopromazine maleate salt] | −0.5926 |
| CC(=O)Oc1ccccc1C(=O)Oc1ccccc1C(=O)O [Acetylsalicylsalicylic acid] | −1.3067 |
| CCN1C[C@]2(COC)[C@H](O)C[C@H](OC)[C@@]34[C@@H]5C[C@@]6(O)[C@H](OC(=O)c7ccccc7)[C@@H]5[C@@](OC(C)=O)([C@@H]([C@H](OC)[C@H]23)[C@@H]14)[C@@H](O)[C@@H]6OC [Aconitine] | 0.7907 |
| Nc1nc2c(ncn2COCCO)c(=O)[nH]1 [Acyclovir] | −0.0091 |
| NC12CC3CC(CC(C3)C1)C2.NC12CC3CC(CC(C3)C1)C2.O=C(O)/C=C/C(=O)O [Adamantamine fumarate] | 0.2085 |
| CCN(CC)CCOC(=O)C(c1ccccc1)c1ccccc1 [Adiphenine hydrochloride] | 0.801 |

| SMILES | Z-score |
| --- | --- |
| C[C@]12CCC(=O)C=C1CC[C@@H]1[C@@H]2C(=O)C[C@]2(C)C(=O)CC[C@@H]12 [Adrenosterone] | −1.025 |
| COC(=O)C1=CO[C@@H](C)[C@H]2CN3CCc4c([nH]c5ccccc45)[C@@H]3C[C@H]12.Cl [Ajmalicine hydrochloride] | −0.8989 |
| CC[C@H]1[C@@H]2C[C@H]3[C@@H]4N(C)c5ccccc5[C@]45C[C@@H]([C@H]2[C@H]5O)N3[C@@H]1O [Ajmaline] | −0.937 |
| CCCSc1ccc2nc(NC(=O)OC)[nH]c2c1 [Albendazole] | 41.6509 |
| CCC(=O)OCC(=O)[C@@]1(OC(=O)CC)[C@H](C)C[C@H]2[C@H]3[C@H]([C@@H](O)C[C@@]21C)[C@@]1(C)C=CC(=O)C=C1C[C@H]3Cl [Alclometasone dipropionate] | 0.9375 |
| C=CC[N@@+]12CC[C@@]34c5ccccc5N5/C=C6/[C@H]7C[C@H]8[C@@]9(CC[N@@+]8(CC=C)C/C7=C/CO)c7ccccc7N(/C=C(/[C@@H](C[C@@H]31)/C(=C\CO)C2)[C@H]54)[C@@H]69.[Cl-].[Cl-] [Alcuronium chloride] | 0.354 |
| CCCCC(CC)CNC(=N)NC(=N)NCCCCCCNC(=N)NC(=N)NCC(CC)CCCC (stereo not drawn) [Alexidine dihydrochloride] | 43.2376 |
| CC(=O)OCC(=O)[C@H]1CC[C@H]2[C@@H]3CC[C@H]4C[C@H](O)CC[C@]4(C)[C@H]3C(=O)C[C@]12C [Alfadolone acetate] | −0.4554 |
| COc1cc2nc(N(C)CCCNC(=O)C3CCCO3)nc(N)c2cc1OC (stereo not drawn) [Alfuzosin hydrochloride] | 0.4534 |
| NC(=O)NC1NC(=O)NC1=O (stereo not drawn) [Allantoin] | 0.8256 |
| C=CCc1ccccc1OCC(O)CNC(C)C (stereo not drawn) [Alprenolol hydrochloride] | 0.9239 |
| CCCCC[C@H](O)/C=C/[C@H]1[C@H](O)CC(=O)[C@@H]1CCCCCCC(=O)O [Alprostadil] | −0.9154 |
| C=CCSCC1Nc2cc(Cl)c(S(N)(=O)=O)cc2S(=O)(=O)N1 (stereo not drawn) [Althiazide] | 0.2816 |
| CN(C)c1nc(N(C)C)nc(N(C)C)n1 [Altretamine] | 0.5601 |
| Nc1c(Br)cc(Br)cc1CN[C@H]1CC[C@H](O)CC1 [Ambroxol hydrochloride] | −0.9433 |
| Cc1c(N(C)C)c(=O)n(-c2ccccc2)n1C [Amidopyrine] | 0.347 |
| NCC[C@H](O)C(=O)N[C@@H]1C[C@H](N)[C@@H](O[C@H]2O[C@H](CN)[C@@H](O)[C@H](O)[C@H]2O)[C@H](O)[C@H]1O[C@H]1O[C@H](CO)[C@@H](O)[C@H](N)[C@H]1O [Amikacin hydrate] | 2.444 |
| N=C(N)NC(=O)c1nc(Cl)c(N)nc1N [Amiloride hydrochloride dihydrate] | 1.955 |
| Nc1ccc(C(=O)NCC(=O)O)cc1 [Aminohippuric acid] | −1.1341 |
| Cn1c(=O)c2[nH]cnc2n(C)c1=O [Aminophylline] | −1.0552 |
| c1ccc(CNc2ncnc3[nH]cnc23)cc1 [Aminopurine, 6-benzyl] | −0.7385 |
| CCCCc1oc2ccccc2c1C(=O)c1cc(I)c(OCCN(CC)CC)c(I)c1 [Amiodarone hydrochloride] | 0.1139 |
| CN(C)CCCO[C@@H]1[C@H]2OC(C)(C)O[C@H]2O[C@@H]1[C@H](O)CO [Amiprilose hydrochloride] | −0.6893 |
| CN(C)CCC=C1c2ccccc2CCc2ccccc21.Cl [Amitryptiline hydrochloride] | 0.6781 |

| SMILES | Z-score |
| --- | --- |
| CCN(CC)Cc1cc(Nc2ccnc3cc(Cl)ccc23)ccc1O [Amodiaquin dihydrochloride dihydrate] | 0.3315 |
| Clc1ccc2c(c1)C(N1CCNCC1)=Nc1ccccc1O2 [Amoxapine] | −0.8161 |
| CC1(C)S[C@@H]2[C@H](NC(=O)[C@H](N)c3ccc(O)cc3)C(=O)N2[C@H]1C(=O)O [Amoxicillin] | −0.1957 |
| C[C@@H]1[C@H](O)[C@@H](C)/C=C/C=C/C=C/C=C/C=C/C=C/C=C/[C@H](O[C@@H]2O[C@H](C)[C@@H](O)[C@H](N)[C@@H]2O)C[C@@H]2O[C@](O)(C[C@@H](O)C[C@@H](O)[C@H](O)CC[C@@H](O)C[C@@H](O)CC(=O)O[C@H]1C)C[C@H](O)[C@H]2C(=O)O [Amphotericin B] | 0.5223 |
| CC1(C)S[C@@H]2[C@H](NC(=O)[C@H](N)c3ccccc3)C(=O)N2[C@H]1C(=O)O [Ampicillin trihydrate] | −1.3793 |
| CCCc1ncc(C[n+]2ccccc2C)c(N)n1 [Amprolium hydrochloride] | 0.8329 |
| Cc1c(N)c(=O)n(-c2ccccc2)n1C [Ampyrone] | −0.2996 |
| Nc1cc(-c2ccncc2)c[nH]c1=O [Amrinone] | 1.535 |
| c1cncc([C@@H]2CCCCN2)c1 [Anabasine] | −0.7781 |
| COc1ccc(C[C@H]2NC[C@H](O)[C@H]2OC(C)=O)cc1 [Anisomycin] | 30.3787 |
| Cc1c(O)c(=O)n(-c2ccccc2)n1C [Antipyrine, 4-hydroxy] | 0.52 |
| Cc1cc(=O)n(-c2ccccc2)n1C [Antipyrine] | −0.2127 |
| O=c1cc(-c2ccc(O)cc2)oc2cc(O)cc(O)c12 [Apigenin] | −0.2208 |
| CN[C@@H]1[C@@H](O[C@H]2O[C@H](CO)[C@@H](N)[C@H](O)[C@H]2O)OC2C[C@@H](N)[C@@H](O[C@H]3[C@H](O)[C@@H](O)[C@H](N)C[C@@H]3N)OC2[C@@H]1O (stereo partly drawn) [Apramycin] | −1.1349 |
| OC[C@H]1O[C@@H](Oc2ccc(O)cc2)[C@H](O)[C@@H](O)[C@@H]1O [Arbutin] | 0.1806 |
| NC(N)=NCCCCN=C(N)N [Arcaine sulfate] | 0.3237 |
| COC(=O)C1=CCCN(C)C1 [Arecoline hydrobromide] | 0.1373 |
| C[C@@H]1CC[C@H]2[C@@H](C)C(=O)O[C@@H]3O[C@@]4(C)CC[C@@H]1[C@]32OO4 [Artemisinin] | 4.801 |
| CCCNC(C)C(=O)Nc1c(C)csc1C(=O)OC (stereo not drawn) [Articaine hydrochloride] | 0.836 |
| O=C1O[C@H]([C@@H](O)CO)C(O)=C1O [Ascorbic acid] | 0.3599 |
| COc1ccc(CCN2CCC(Nc3nc4ccccc4n3Cc3ccc(F)cc3)CC2)cc1 [Astemizole] | −0.7215 |
| O=C1C(O)=C([C@H]2CC[C@H](c3ccc(Cl)cc3)CC2)C(=O)c2ccccc21 [Atovaquone] | 0.629 |
| C=C1[C@@H]2CC[C@H]3[C@]4(C)C[C@H](O[C@@H]5O[C@H](CO)[C@@H](OS(=O)(=O)O)[C@H](OS(=O)(=O)O)[C@H]5OC(=O)CC(C)C)C[C@@H](C(=O)O)[C@H]4CC[C@]3(C2)[C@@H]1O [Atractyloside potassium salt] | −0.3937 |
